How the values were obtained:
HT-29 = assay: Cytotoxicity against human HT-29 cells after 1 hr by MTT assay; format: functional, cell-based; conditions: HT-29, 1 h
HCT-116 = assay: Cytotoxicity against human HCT116 cells after 1 hr by MTT assay; format: functional, cell-based; conditions: HCT-116, 1 h

With `C=C[C@](C)(CC/C=C(\C)C(=O)O[C@H]1[C@H](O)[C@@H](O)[C@H](O[C@](C)(C=C)CC/C=C(\C)C(=O)O[C@H]2[C@H](O)[C@@H](O)[C@H](O[C@](C)(C=C)CC/C=C(/C)C(=O)O[C@H]3C[C@]4(C(=O)O[C@@H]5O[C@H](CO)[C@@H](O)[C@H](O)[C@H]5O[C@@H]5O[C@@H](C)[C@H](O[C@@H]6O[C@@H](CO)[C@H](O)[C@H]6O)[C@@H](O[C@@H]6O[C@H](CO)[C@@H](O)[C@H](O)[C@H]6O)[C@H]5O)[C@H](O)C[C@]5(C)C(=CC[C@@H]6[C@@]7(C)CC[C@H](O[C@@H]8O[C@H](CO[C@@H]9O[C@H](C)[C@H](O)[C@H](O)[C@H]9O)[C@@H](O)[C@H](O)[C@H]8O[C@@H]8O[C@H](CO)[C@@H](O)[C@H](O)[C@H]8O)C(C)(C)C7CC[C@]65C)[C@@H]4CC3(C)C)O[C@@H]2C)O[C@@H]1C)O[C@@H]1O[C@H](C)[C@@H](O)[C@H](O)[C@H]1O` (some centres undefined) [CORIARIOSIDE A] the IC50 (HT-29) was 6.7 µM and the IC50 (HCT-116) was 4.2 µM.
`CC(=O)O[C@H]1C(=O)[C@@]2(C)[C@H]([C@H](OC(=O)c3ccccc3)[C@]3(O)C[C@H](OC(=O)[C@H](O)[C@@H](NC(=O)c4ccccc4)c4ccccc4)C(C)=C1C3(C)C)[C@]1(OC(C)=O)CO[C@@H]1C[C@@H]2O` [PACLITAXEL] gave an IC50 (HT-29) of 0.0034 µM and an IC50 (HCT-116) of 0.0035 µM.

Reference: ChEMBL document CHEMBL1154302, “Cytotoxic acacic acid glycosides from the roots of Albizia coriaria” (J Nat Prod, 2009)
